System: Beagle dogs
Assay: Maximum tolerated dose study in Beagle dogs, escalated-dose oral administration
Type: in vivo
Design: HGB: unit not given here
Details: for A/G / ALB / ALP / ALT / AST / BASO / BUN / CHO / CRE / EOS / GLU / HCT / HGB / K+ / LYM / MCH / MCHC / MCV / MONO / NEU / Na+ / PLT / PRO / RBC / Reti / T-BIL / TG / WBC: ~24 h post dose
Excerpt: The protocol and procedures involving the care and use of animals in this study was reviewed and approved by IACUC of QuBEST BIO prior to conduct (Approval no.: QBSIACUC-A18142). During the study, the care and use of animals will be conducted in accordance with all applicable guidelines of Animal Welfare Act. Non-naive one male and one female Beagle dogs (~16–24 months old, original supplier: ORIENTBIO Co., Ltd, Korea) were selected from the stock colony and assigned for the study. The route of administration was the oral (by gavage) route, which is the anticipated clinical route of exposure. Test article formulations were administered once via oral gavage. The day of 1st dosing was designated as Day 1. Each dose was administered via a syringe attached with 12-french feeding tube. A dose volume of 5 ml/kg was used and individual dose volumes were based on the most recent body weight. Each dose was followed by a distilled water of 5 ml. Each animal was observed twice daily (a.m. and p.m.) for mortality and moribundity; findings were recorded as they were observed. Cage side observations were made for each animal once daily; abnormal findings were recorded. […] Body weights were measured prior to each dosing. […] Prior to dosing and ~24 h post each dose, blood was collected as the same method and frequency with hematology analysis using no anticoagulant and then serum was separated by centrifugation and stored at freezer until analyze (AU 400, Olympus, Japan; […] 744 Na^+/K^+/[…] Analyzer, SIEMENS, Germany). In terminal procedures, all surviving animals were returned to the stock colony without necropsy. Toxicity studies were performed by QuBEST BIO Co., Ltd (Yongin, Korea).
The objective of this study was to determine the maximum tolerated dose (MTD) of SLC-D011 following dose escalation by oral gavage to Beagle dogs.
The study group was detailed in Text Table 1.
Text Table 1. Study Group
Dose Level Dose Conc. No. of Animals†
Group Treatment (mg/kg) (mg/mL)
†: Animals were re-used for each dose with at least 4-day wash-out period.
The following parameters were evaluated in this study: mortality, clinical signs, body weights and clinical pathology parameters (hematology and serum biochemistry).
Mortality and Clinical Observations
All animals survived until end of the study. Test article-related clinical observations were limited to oily soft stool in the 100 mg/kg/day group animals and vomitus (frothy) and soft sto ol in the 400 […]
Clinical Pathology Parameters (Hematology and Serum Chemistry) […]
the 100 and 400 mg/kg group animals on approximately 24 hours post each dose, compared to pre […]
Based on the results of this study, the maximum tolerated dose (MTD) of SLC-D011 was considered to […]
Test article formulations were administered once via oral gavage. The day of 1st dosing was designated […]
Each dose was administered via a syringe attached with 12-french feeding tube. A dose volume of 5 mL/kg was used and individual dose volumes were based on the most recent body weight. Each dose was followed by a distilled water of 5 mL. […]
Each animal was observed twice daily (a.m. and p.m.) for mortality and moribundity; findings were recorded as they were observed. Cage side observations were made for each animal once daily; abnormal findings were recorded. Detailed observations were made for each animal once prior to treatment; abnormal findings (ranked/graded, if appropriate) or an indication the animal appears […]
Body weights were measured prior to each dosing. […]
Prior to each dosing and approximately 24 hours post each dose, blood samples for hematology examination were collected from the via cephalic vein into tubes with K2EDTA anticoagulant and […]
Parameters Unit Measurement Method
ⓐ RBC (Red blood cell count) 106/μL Electric Impedance […]
ⓒ HGB (Hemoglobin conc.) g/dL Cyanmethemoglobin […]

In the case of CC1(C)Oc2cc3oc(=O)ccc3cc2C[C@@H]1OC/C=C/c1ccccc1 [SLC-D011], the Body weights (100 mg/kg/day group animals by Day 4) is reported as “lower body weights were temporarily noted”, the “Hematology and serum chemistry parameters (in words)” value (100 and 400 mg/kg, ~24 hours post each dose vs pre dose) is reported as “no toxicologically significant changes” and the A/G (female F1, 100 mg/kg) is reported as 0.72. For the same molecule, the ALB (female F1, 100 mg/kg) was 2.62 g/dL, the ALP (female F1, 100 mg/kg) was 106.7 U/L and the ALT (female F1, 100 mg/kg) was 34.3 U/L. For the same molecule, the AST (female F1, 100 mg/kg) was 41.7 U/L, the BASO (female F1, 100 mg/kg) was 0.6% and the BUN (female F1, 100 mg/kg) was 17.7 mg/dL. It also gave a CHO (female F1, 100 mg/kg) of 189.4 mg/dL, a CRE (female F1, 100 mg/kg) of 0.82 mg/dL and an EOS (female F1, 100 mg/kg) of 1.2%. The GLU (female F1, 100 mg/kg) was 96.4 mg/dL, the HCT (female F1, 100 mg/kg) was 47.8% and the HGB (female F1, 100 mg/kg) was 15.6. For the same molecule, the “K+” value (female F1, 100 mg/kg) was 4.5 mmol/L, the LYM (female F1, 100 mg/kg) was 39.9% and the MCH (female F1, 100 mg/kg) was 22.5 pg. The MCHC (female F1, 100 mg/kg) was 32.6 g/dL, the MCV (female F1, 100 mg/kg) was 68.9 fL and the MONO (female F1, 100 mg/kg) was 5.6%. The NEU (female F1, 100 mg/kg) was 52.3%, the “Na+” value (female F1, 100 mg/kg) was 141 mmol/L and the PLT (female F1, 100 mg/kg) was 357 K/uL. For the same molecule, the PRO (female F1, 100 mg/kg) was 6.27 g/dL, the RBC (female F1, 100 mg/kg) was 6.93 M/uL and the Reti (female F1, 100 mg/kg) was 0.61%. It also gave a T-BIL (female F1, 100 mg/kg) of 0.18 mg/dL, a TG (female F1, 100 mg/kg) of 21.3 mg/dL and a WBC (female F1, 100 mg/kg) of 7.80 K/uL. For the same molecule, the A/G (female F1, 400 mg/kg) was 0.78, the ALB (female F1, 400 mg/kg) was 2.53 g/dL and the ALP (female F1, 400 mg/kg) was 174.7 U/L. For the same molecule, the ALT (female F1, 400 mg/kg) was 39.1 U/L, the AST (female F1, 400 mg/kg) was 34.5 U/L and the BASO (female F1, 400 mg/kg) was 0.8%. For the same molecule, the BUN (female F1, 400 mg/kg) was 12.08 mg/dL, the CHO (female F1, 400 mg/kg) was 175.1 mg/dL and the CRE (female F1, 400 mg/kg) was 0.85 mg/dL. For the same molecule, the EOS (female F1, 400 mg/kg) was 1.4%, the GLU (female F1, 400 mg/kg) was 104.39 mg/dL and the HCT (female F1, 400 mg/kg) was 50.8%. For the same molecule, the HGB (female F1, 400 mg/kg) was 15.7, the “K+” value (female F1, 400 mg/kg) was 4.9 mmol/L and the LYM (female F1, 400 mg/kg) was 31.2%. The MCH (female F1, 400 mg/kg) was 22.2 pg, the MCHC (female F1, 400 mg/kg) was 30.9 g/dL and the MCV (female F1, 400 mg/kg) was 71.7 fL. The MONO (female F1, 400 mg/kg) was 6.5%, the NEU (female F1, 400 mg/kg) was 59.6% and the “Na+” value (female F1, 400 mg/kg) was 143 mmol/L. For the same molecule, the PLT (female F1, 400 mg/kg) was 378 K/uL, the PRO (female F1, 400 mg/kg) was 5.76 g/dL and the RBC (female F1, 400 mg/kg) was 7.08 M/uL. The Reti (female F1, 400 mg/kg) was 0.95%, the T-BIL (female F1, 400 mg/kg) was 0.15 mg/dL and the TG (female F1, 400 mg/kg) was 29.3 mg/dL. For the same molecule, the WBC (female F1, 400 mg/kg) was 10.99 K/uL, the Mortality (female dog, 100 mg/kg) was 0/1 and the “Clinical Observations Day 1” value (female dog, 100 mg/kg, about 7 hours post dose) was “Soft stool (Oily)”. For the same molecule, the Mortality (female dog, 400 mg/kg) was 0/1, the “Clinical Observations Day 1” value (female dog, 400 mg/kg, about 6 hours post dose) was “Black soft stool” and the A/G (male M1, 100 mg/kg) was 0.58. The ALB (male M1, 100 mg/kg) was 2.41 g/dL, the ALP (male M1, 100 mg/kg) was 83.4 U/L and the ALT (male M1, 100 mg/kg) was 43.1 U/L. The AST (male M1, 100 mg/kg) was 28 U/L, the BASO (male M1, 100 mg/kg) was 0.2% and the BUN (male M1, 100 mg/kg) was 16.83 mg/dL. It also gave a CHO (male M1, 100 mg/kg) of 161 mg/dL, a CRE (male M1, 100 mg/kg) of 0.7 mg/dL and an EOS (male M1, 100 mg/kg) of 4.3%. For the same molecule, the HCT (male M1, 100 mg/kg) was 46.8%, the HGB (male M1, 100 mg/kg) was 15.4 and the “K+” value (male M1, 100 mg/kg) was 4.8 mmol/L. For the same molecule, the LYM (male M1, 100 mg/kg) was 32.4%, the MCH (male M1, 100 mg/kg) was 23.0 pg and the MCHC (male M1, 100 mg/kg) was 33.0 g/dL. For the same molecule, the MCV (male M1, 100 mg/kg) was 69.9 fL, the MONO (male M1, 100 mg/kg) was 7.1% and the NEU (male M1, 100 mg/kg) was 55.7%. For the same molecule, the “Na+” value (male M1, 100 mg/kg) was 144 mmol/L, the PLT (male M1, 100 mg/kg) was 354 K/uL and the RBC (male M1, 100 mg/kg) was 6.69 M/uL. It also gave a Reti (male M1, 100 mg/kg) of 0.15%, a T-BIL (male M1, 100 mg/kg) of 0.1 mg/dL and a TG (male M1, 100 mg/kg) of 28.9 mg/dL. The WBC (male M1, 100 mg/kg) was 8.83 K/uL, the A/G (male M1, 400 mg/kg) was 0.59 and the ALB (male M1, 400 mg/kg) was 2.37 g/dL. The ALP (male M1, 400 mg/kg) was 94.3 U/L, the ALT (male M1, 400 mg/kg) was 74.9 U/L and the AST (male M1, 400 mg/kg) was 27.2 U/L. The BASO (male M1, 400 mg/kg) was 0.6%, the BUN (male M1, 400 mg/kg) was 16.17 mg/dL and the CHO (male M1, 400 mg/kg) was 142 mg/dL. For the same molecule, the CRE (male M1, 400 mg/kg) was 0.79 mg/dL, the EOS (male M1, 400 mg/kg) was 4.4% and the HCT (male M1, 400 mg/kg) was 50.5%. The HGB (male M1, 400 mg/kg) was 15.2, the “K+” value (male M1, 400 mg/kg) was 5.1 mmol/L and the LYM (male M1, 400 mg/kg) was 25.1%. It also gave an MCH (male M1, 400 mg/kg) of 22.1 pg, an MCHC (male M1, 400 mg/kg) of 30.1 g/dL and an MCV (male M1, 400 mg/kg) of 73.2 fL. The MONO (male M1, 400 mg/kg) was 7.9%, the NEU (male M1, 400 mg/kg) was 61.7% and the “Na+” value (male M1, 400 mg/kg) was 146 mmol/L. The PLT (male M1, 400 mg/kg) was 347 K/uL, the RBC (male M1, 400 mg/kg) was 6.90 M/uL and the Reti (male M1, 400 mg/kg) was 0.34%. The T-BIL (male M1, 400 mg/kg) was 0.12 mg/dL, the TG (male M1, 400 mg/kg) was 34.4 mg/dL and the WBC (male M1, 400 mg/kg) was 9.43 K/uL. The Mortality (male dog, 100 mg/kg) was 0/1, the “Clinical Observations Day 1” value (male dog, 100 mg/kg, about 7 hours post dose) was “Brown soft stool (Oily)” and the Mortality (male dog, 400 mg/kg) was 0/1. The “Clinical Observations Day 1” value (male dog, 400 mg/kg, about 1 hours post dose) was “Vomitius (Frothy)” and the Tolerability (single oral administration at 100 and 400 mg/kg) was “well tolerated”.

Source: publication PMC7782499, “Progerinin, an optimized progerin-lamin A binding inhibitor, ameliorates premature senescence phenotypes of Hutchinson-Gilford progeria syndrome” (Communications Biology, 2021)
